SMILES strings stand for the structures. pIC50: −log10 of the molar value.

One test is described as follows: The compound was evaluated for time dependent inhibitory activity against Lipoprotein associated Phospholipase A2 (Lp-PLA2) enzyme after 10 min incubation.
Consider `CCCCCCCCCCC[C@H](CC(=O)NC(=O)/C=C1/OC(=O)N2CCCC12)O[C@@H]1O[C@@H](C)[C@H](O)[C@@H](O)[C@H]1O` (stereo partly drawn), for which the pIC50 was 7.29. Regarding `CCCCCCCCCCCCCCCCNC(=O)/C=C1/OC(=O)N2CCC[C@H]12`, the pIC50 was 7.92.

As for `CCCCCCCCCCCCCCCCNC(=O)/C=C1/OC(=O)N2CCC[C@@H]12`, the pIC50 was 7.60.

Consider `CCCCCCCCCCCCCCNC(=O)/C=C1/OC(=O)N2CCC[C@@H]12`, for which the pIC50 is 7.55. With `CCCCCCCCCCCCNC(=O)/C=C1/OC(=O)N2CCC[C@@H]12`, the pIC50 was 6.77.

The nature of the next test: The compound was evaluated for time dependent inhibitory activity against Lipoprotein associated Phospholipase A2 (Lp-PLA2) enzyme after 10 min incubation; Inactive.
For `CCCCCCCC(=O)OCCCCC#C/C=C1/OC(=O)N2CCC[C@@H]12`, the IC50 result is “Not Active”. On to `O=C1O/C(=C/C#CCCCCO)[C@@H]2CCCN12`, for which the IC50 entry is on record as “Not Active”. Take `CCCCCCCCCCCCCCC#C/C=C1/OC(=O)N2CCC[C@@H]12`: the IC50 entry is listed as “Not Active”.

For orientation: pIC50 means −log10 of the IC50, conventionally taken in molar units. Higher therefore signals a small IC50.
